According to paper PMC6222672, “Pharmacokinetic and Metabolism Studies of 12-Riboside-Pseudoginsengenin DQ by UPLC-MS/MS and UPLC-QTOF-MS^E” (Molecules : A Journal of Synthetic Chemistry and Natural …, 2018):
Like-named read-outs stand apart in the source and are kept apart here.

Key:
[1] = cited from earlier work
[2] = type: in vitro ADME; conditions: rat, 100 ng/mL
Protocol: RPDQ and 20R-panaxadiol stock methanol solutions (1.00 mg/mL) were all prepared with the reference compounds, respectively. Firstly, blank rat plasma was prepared. The blood samples were collected immediately from the abdominal aorta and incubated at 37 °C for 30 min. The plasma was separated by centrifugation at 4000 rpm for 15 min, and was frozen at −20 °C until analysis. By spiking the dilute solutions with blank rat plasma, calibration curves were plotted to produce the points equivalent to 5, 10, 25, 50, 100, 300, 500, and 1000 ng/mL for RPDQ. […] All the QC and calibration standards samples were prepared freshly before analysis. The specificity, linearity, LLOQ, precision and accuracy, extraction recovery, matrix effect, diluted reliability, and stability of the method were validated by following a non-clinical drug pharmacokinetic study technical guideline (China Food And Drug Administration 2014) and the Bioanalytical Method Validation Guideline (Chinese Pharmacopoeia 2015, Vol. 4). Specificity was assessed by comparing blank plasma samples, plasma was spiked with RPDQ and 20R-panaxadiol, and plasma samples were collected after administration. Linearity was analyzed through weighted regression (1/x^2) of peak area ratios (y) of RPDQ to 20R-panaxadiol versus nominal concentration (x) in plasma. […] The intra- and inter-day precision and accuracy were evaluated with the analysis of six replicate QC samples on three consecutive days, respectively. The extraction recovery and matrix effect at three QC concentrations were assayed. By comparing peak areas of RPDQ and 20R-panaxadiol in extracted QC samples with those in post-extracted blank plasma samples, the recoveries were calculated. Moreover, by comparing the peak area of samples spiked after extraction with that of the neat solution’s equivalent concentration, the matrix effect was then evaluated. Stability was evaluated by analyzing replicate QC samples, which were stored at −20 °C for two weeks at room temperature for 4 h, and experienced three freeze/thaw cycles (from −20 °C to room temperature) on consecutive days. The stabilities of RPDQ in stock solutions at 15 °C and stored in plastic autosampler vials for 16 h at 10 °C were also assessed. Five-fold higher concentrations of QC were achieved by adding moderate RPDQ to blank plasma. The samples were then diluted and analyzed with undiluted calibration standards. The accuracy and precision were within acceptable limits (± 15%).

[3] = Metabolite identification in rat plasma, bile, urine and feces by UPLC-QTOF-MSE; type: in vivo; conditions: rats, RPDQ 48 mg/kg i.g.
Protocol: For a metabolism study, RPDQ (48 mg/kg, i.g.) was administered to obtain a high concentration of metabolites. […] The pooled plasma sample (500 μL) was then added with methanol (2 mL) to vortex and precipitate proteins. Subsequently, the mixtures were centrifuged (10,000 rpm, 4 °C, 10 min) to obtain the supernatant, which was then evaporated by N2 to obtain the residue. Methanol (100 μL) was used to reconstitute the residue. In order to obtain bile samples, rats were anaesthetized with urethane (1.0 g/kg, intraperitoneal injection). After making an abdominal incision, the bile was collecting by surgically inserting a plastic cannula into the bile ducts. Prior to administration, blank bile was collected for 2 h. After administration, bile samples were collected for 12 h. By using metabolism cages, blank and dosed urine and feces samples were also collected prior to administration or 24 h after administration. After diluting each urine or bile sample (300 μL) with 1 mL of methanol, the mixture was centrifuged (10,000 rpm, 4 °C, 10 min) to obtain the supernatant, which was then evaporated by N2 to obtain the dried urine or bile residue. Methanol (50 μL) was then used to dissolve each residue. After centrifuging (10,000 rpm, 4 °C, 10 min), the clear supernatants were used for the analysis. […] Metabolic characterization of RPDQ was analyzed using UNIFI 1.7.0 software (Waters, Manchester, UK).

[4] = after intragastric administration

## CC(C)=CCC[C@](C)(O[C@@H]1O[C@H](CO)[C@@H](O)[C@H](O)[C@H]1O)[C@H]1CC[C@]2(C)[C@@H]1[C@H](O)C[C@@H]1[C@@]3(C)CC[C@H](O)C(C)(C)[C@@H]3CC[C@]12C [CK, Ginsenoside CK]
[1]; [4]
  bioavailability: 4.30%

## CC1(C)CCCC(C)(C2CC[C@]3(C)C2C(O)CC2C4(C)CCC(O)C(C)(C)C4CCC23C)O1 (stereo partly drawn) [IS, 20R-panaxadiol, reference compound]
[2]
  Mean concentration: 94.11 ± 3.47 ng/mL
[2]; 3 freeze-thaw cycles
  Accuracy: −5.89%
[2]; 4 h
  Accuracy: −7.66%
  Mean concentration: 92.34 ± 3.12 ng/mL
[2]; 16 h
  Accuracy: −8.66%
  Mean concentration: 91.34 ± 2.31 ng/mL
[2]; 14 d
  Accuracy: −5.26%
  Mean concentration: 94.74 ± 4.25 ng/mL

## CC(C)=CCC[C@](C)(O[C@@H]1O[C@H](CO[C@@H]2O[C@H](CO)[C@@H](O)[C@H](O)[C@H]2O)[C@@H](O)[C@H](O)[C@H]1O)[C@H]1CC[C@]2(C)[C@@H]1[C@H](O)C[C@@H]1[C@@]3(C)CC[C@H](O[C@@H]4O[C@H](CO)[C@@H](O)[C@H](O)[C@H]4O[C@@H]4O[C@H](CO)[C@@H](O)[C@H](O)[C@H]4O)C(C)(C)[C@@H]3CC[C@]12C [Rb1, Ginsenosides Rb1]
[1]; [4]
  bioavailability: 0.78%
  biological half time (t1/2): 9.8 h

## CC(C)=CCC[C@](C)(O[C@@H]1O[C@H](CO[C@@H]2OC[C@H](O)[C@H](O)[C@H]2O)[C@@H](O)[C@H](O)[C@H]1O)[C@H]1CC[C@]2(C)[C@@H]1[C@H](O)C[C@@H]1[C@@]3(C)CC[C@H](O[C@@H]4O[C@H](CO)[C@@H](O)[C@H](O)[C@H]4O[C@@H]4O[C@H](CO)[C@@H](O)[C@H](O)[C@H]4O)C(C)(C)[C@@H]3CC[C@]12C [Rb2]
[1]; [4]
  bioavailability: 0.08%
  biological half time (t1/2): 23.1 h

## CC(C)=CCC[C@](C)(O[C@@H]1O[C@H](CO[C@@H]2OC[C@@H](O)[C@H](O)[C@H]2O)[C@@H](O)[C@H](O)[C@H]1O)[C@H]1CC[C@]2(C)[C@@H]1[C@H](O)C[C@@H]1[C@@]3(C)CC[C@H](O[C@@H]4O[C@H](CO)[C@@H](O)[C@H](O)[C@H]4O[C@@H]4O[C@H](CO)[C@@H](O)[C@H](O)[C@H]4O)C(C)(C)[C@@H]3CC[C@]12C [Rb3]
[1]; [4]
  bioavailability: 0.52%
  biological half time (t1/2): 21.1 h

## CC(C)=CCC[C@](C)(O[C@@H]1O[C@H](CO)[C@@H](O)[C@H](O)[C@H]1O)[C@H]1CC[C@]2(C)[C@@H]1[C@H](O)C[C@@H]1[C@@]3(C)CC[C@H](O)C(C)(C)[C@@H]3[C@@H](O[C@@H]3O[C@H](CO)[C@@H](O)[C@H](O)[C@H]3O)C[C@]12C [Rg1]
[1]; [4]
  bioavailability: 1.33%

## CC(C)=CCC[C@](C)(O)[C@H]1CC[C@]2(C)[C@@H]1[C@H](O)C[C@@H]1[C@@]3(C)CC[C@H](O)C(C)(C)[C@@H]3[C@@H](O[C@@H]3O[C@H](CO)[C@@H](O)[C@H](O)[C@H]3O)C[C@]12C [Rh1]
[1]; [4]
  bioavailability: 1.01%
  t1/2: 25.8 min

## CC(C)=CCCC(C)(O)C1CCC2(C)C1C(O)CC1C3(C)CCC(O)C(C)(C)C3CCC12C (stereo not shown) [protopanaxdiol]
[1]; rat, in vivo, po
  bioavailability (F): 36.8%
  elimination half-life (t1/2): 88.8 min

## CC1(C)C(O)CCC2(C)C1CCC1(C)C2CC(O)C2C([C@]3(C)CC[C@@H](C(C)(C)O)O3)CC[C@]21C (stereo partly shown) [pseudoginsengenin DQ]
[1]; [4]
  biological half time (t1/2): 5.97 h
[3]
  Source (samples in which detected: plasma, bile, feces, urine): P,B, F,U
